Assay results as given in US11725015B2, “Macrocyclic compound and uses thereof” (President and Fellows of Harvard College, priority 2017, dated 2023).

Assays:
[1] = tested on: human breast cancer cell line MDA-MB231; assay: MDA-MB231 growth inhibition assay; type: cell-based; conditions: 3 days incubation, CellTiter-Glo
Protocol: In this assay, the growth inhibitory activity of test compounds in a human breast cancer cell line MDA-MB231 was measured. MDA-MB231 cells were maintained in Dulbecco's Modified Eagle's medium (Wako Pure Chemical Industries, Ltd., 044-29765) medium containing 10% fetal bovine serum (FBS: Nichirei, 12D168), and penicillin and streptomycin in a 5% CO2 incubator (37° C.). To each well of a 96 well plate (Becton, Dickinson and Company, 353219), 75 μL of MDA-MB231 cell suspension adjusted to a concentration of 4×10^4 cells/mL with the culture medium was added, and the cells were incubated overnight in a 5% CO2 incubator (37° C.). On the next day, 25 μL of Compound (1) or Halichondrin B in three-fold dilution series suspended in the culture medium was added to each well, and the resultant was incubated for 3 days in a 5% CO2 incubator (37° C.). Then, cell viability was determined by CellTiter-Glo® Luminescent Cell Viability Assay (Promega) with EnVision 2103 Multilabel Reader (Perkin-Elmer, Wellesley, Mass.). Value of the wells containing cells without adding the test compounds was defined as 100% and the value of the wells containing no cells was defined as 0%. The concentration of the test compound necessary for inhibiting the cell growth by 50% (i.e., an IC50 value) was calculated, and shown in Table 2.

[2] = tested on: FaDu subcutaneous xenograft; assay: Antitumor effects in FaDu subcutaneous xenograft model in combination with cetuximab in mice, single dose (Test Example 21); type: in vivo; conditions: single dose Day 1
Protocol: A human squamous cell carcinoma of the head and neck (SCCHN) cell line FaDu, which had been cultured in an RPMI-1640 medium containing 10% FBS, and penicillin-streptomycin, was adjusted to a concentration of 5×10^7 cells/mL with Hanks' Balanced Salt Solution to prepare a cell suspension. The cell suspension was inoculated in a volume of 100 μL into a subcutaneous part of a right flank of athymic mice (CAnN.Cg-Foxnlnu/CrlCrlj, female, 7 weeks old, Charles River Japan Inc.). Ten days after cell inoculation (Day 1), the length and the width of a tumor in each mouse were measured by using an electronic digital caliper (Mitutoyo Corporation), so as to calculate the volume of the tumor in accordance with the following calculation formula: Tumor volume (mm^3)=Longest diameter (mm)×Shortest diameter (mm)×Shortest diameter (mm)/2 Relative tumor volume (RTV)=Tumor volume (day X)/Tumor volume (the first day)
On the basis of TV, the mice were randomly grouped (Day 1). Each group was consisted in six mice. Compound (1) was dissolved in DMSO and a solution was stored in the freezer before use.

[3] = tested on: HT-1080 (human fibrosarcoma) xenograft; assay: Antitumor effects in HT-1080 soft tissue sarcoma xenograft model in mice as monotherapy; type: in vivo; conditions: 180 μg/kg intravenously on Day 1 and Day 8
Protocol: A human fibrosarcoma cell line HT-1080, which had been cultured in an E-MEM containing 10% FBS, NEAA and antibiotics was adjusted to a concentration of 3×10^7 cells/mL with medium to prepare a cell suspension. The cell suspension was inoculated in a volume of 100 μL into a subcutaneous part of a right flank of athymic mice (CAnN.Cg-Foxnlnu/CrlCrlj, female, 6 weeks old, Charles River Japan Inc.). Six days after cell inoculation (Day 1), the length and the width of a tumor in each mouse were measured by using an electronic digital caliper (Mitutoyo Corporation), so as to calculate the volume of the tumor in accordance with the following calculation formula: Tumor volume (mm^3)=Longest diameter (mm)×Shortest diameter (mm)×Shortest diameter (mm)/2 Relative tumor volume (RTV)=Tumor volume (day X)/Tumor volume (the first day)
On the basis of TV, the mice were randomly grouped (Day 1). Each group was consisted in six mice. Compound (1) was dissolved in DMSO and a solution was stored in the freezer before use. Compound (1) (180 μg/kg) was diluted with saline and intravenously injected on Day 1 and Day 8.

[4] = target: T1, tubulin protein purified from porcine brain (Sus scrofa, UniProt P02550+P02554); assay: Cell-free tubulin polymerization assay; type: biochemical; conditions: final concentrations 0.625-10 μmol/L
T1 construct: lyophilized tubulin protein purified from porcine brain; purchased Cytoskeleton, Inc. BK011P; host or cells: porcine brain (tissue-purified)
T1 sequence (P02554 whole entry): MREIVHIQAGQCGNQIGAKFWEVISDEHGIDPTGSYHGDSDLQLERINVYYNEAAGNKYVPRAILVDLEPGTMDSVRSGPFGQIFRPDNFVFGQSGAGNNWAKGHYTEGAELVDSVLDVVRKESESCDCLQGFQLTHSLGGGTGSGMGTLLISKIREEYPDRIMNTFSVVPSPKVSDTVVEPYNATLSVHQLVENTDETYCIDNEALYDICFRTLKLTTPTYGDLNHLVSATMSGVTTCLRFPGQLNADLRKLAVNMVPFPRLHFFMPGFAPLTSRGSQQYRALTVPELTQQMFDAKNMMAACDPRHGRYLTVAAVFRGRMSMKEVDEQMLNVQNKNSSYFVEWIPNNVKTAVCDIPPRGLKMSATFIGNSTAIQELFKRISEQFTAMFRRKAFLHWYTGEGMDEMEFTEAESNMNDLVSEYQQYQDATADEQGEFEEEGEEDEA
T1 sequence (P02550 whole entry): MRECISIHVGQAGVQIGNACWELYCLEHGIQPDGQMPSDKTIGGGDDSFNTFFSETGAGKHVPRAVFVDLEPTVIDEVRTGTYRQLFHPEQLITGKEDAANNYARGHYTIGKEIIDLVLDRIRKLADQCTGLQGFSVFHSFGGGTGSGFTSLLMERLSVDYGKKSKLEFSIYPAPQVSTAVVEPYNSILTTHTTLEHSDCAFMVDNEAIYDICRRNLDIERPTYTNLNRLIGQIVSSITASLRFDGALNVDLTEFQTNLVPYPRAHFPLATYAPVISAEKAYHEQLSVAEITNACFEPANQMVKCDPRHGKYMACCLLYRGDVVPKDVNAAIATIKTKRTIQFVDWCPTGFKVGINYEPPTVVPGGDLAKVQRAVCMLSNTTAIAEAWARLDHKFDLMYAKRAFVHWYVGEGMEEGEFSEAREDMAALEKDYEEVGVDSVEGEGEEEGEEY
Protocol: Tubulin Polymerization Assay kit was purchased from Cytoskeleton, Inc. (Cat. #BK011P). The kit contained 1 bottle of lyophilized tubulin protein purified from porcine brain, 3 tubes of lyophilized GTP, 2 bottles of lyophilized assay buffer, and 1 bottle of tubulin glycerol buffer. Assay buffer was prepared by dissolving the contents in 10 mL of deionized and sterilized water. This solution contained 80 mmol/L piperazine-N,N′-bis[2-ethanesulfonic acid] sesquisodium salt, 2.0 mmol/L magnesium chloride, 0.5 mmol/L ethylene glycol-bis(2-amino-ethyl ether) N,N,N′,N′-tetra-acetic acid, pH 6.9, and 10 μmol/L fluorescent reporter. The buffer was stored at −70° C. until use. […]
In the tubulin polymerization assay, reaction mixture was prepared by mixing 820 μL of assay buffer, 17.6 μL of GTP stock solution, and 600 μL of tubulin glycerol buffer. […] Fluorescence emission at 460 nm (excitation wavelength at 360 nm) was measured every 2 minutes for 90 minutes using the SpectraMax® M5e microplate reader (Molecular Devices). Tubulin polymerization was followed by fluorescence enhancement due to the incorporation of a fluorescence reporter into microtubules as polymerization occurred. […]

## C=C1C[C@@H]2CC[C@@]34C[C@H]5O[C@H]6[C@@H](O3)[C@H]3O[C@H](CC[C@@H]3O[C@H]6C5O4)CC(=O)O[C@@H]3[C@@H](C)[C@@H]4O[C@@H]5C[C@]6(C[C@@H]7O[C@]8(C[C@H](C)[C@@H]9O[C@H](CN)[C@H](O)C[C@@H]9O8)C[C@H](C)[C@@H]7O6)O[C@@H]5C[C@@H]4O[C@H]3C[C@H]3O[C@@H](CC[C@@H]1O2)C[C@@H](C)C3=C [Compound (1)]
[1]
  IC50: 0.109 nM
[2]; 180 μg/kg + CTX 10 mg/kg
  antitumor efficacy with CTX: stronger than that of CTX monotherapy with tumor regression
[2]; 20 mg/kg + CTX 10 mg/kg
  antitumor efficacy with CTX: tended to be stronger than that of CTX monotherapy
[2]; 60 mg/kg + CTX 10 mg/kg
  antitumor efficacy with CTX: stronger than that of CTX monotherapy with tumor regression
[3]
  antitumor activity: tumor regression
[4]
  effect on tubulin polymerization: inhibited tubulin polymerization in a concentration-dependent manner
